Structures can show the parent of a compound that is named as a salt.
Assays:
2N4R tau aggregates = biological target: T1, 2N4R tau aggregates (Homo sapiens, UniProt P10636); test: Dissolution of preformed 2N4R tau fibrils (ThT fluorescence, TEM); format: biochemical; settings: compounds added to tau fibrils after about 40 h; tau monomer:Compound 1:3 and 1:10
T1 construct: Full-length 2N4R tau was incubated with Osimertinib mesylate
Method: (A) ThT fluorescence curves monitoring tau aggregation. tau fibrillization reached a saturation point within about 40 h, then compounds or buffer (Reference) were added to tau fibrils (tau monomer:Compound mole ratios 1:3 and 1:10). The experiment was performed in duplicate. […] Statistically significant differences were determined by one-way ANOVA with Dunnett's multiple comparison test. Significant differences corresponding to p≤0.0002(***) and p≤0.0001(****) are indicated. […] Scale bars are 500 nm. […] The dotted line corresponds to one standard deviation above the Reference value.
(§1) To prepare the Tau fibril seeds by de novo aggregation, 2N4R Tau at a monomer concentration of 25 μM was diluted in aggregation buffer. The working concentration of TCEP in the aggregation mixture was <25 μM after dilution of the stock. To this mixture, Thioflavin T (ThT) was added to a final concentration of 50 μM. A total volume of 100 μL of the Tau-ThT mixture was incubated in a well of a 96-well microplate (Greiner Bio-one), in the presence of two polytetrafluoroethylene beads. The microplate was subjected to a program implemented in a Tecan Spark plate reader that involved incubating at 37° C., with intervals of double orbital shaking and ThT fluorescence emission measurement. The excitation wavelength for ThT was set as 430 nm and the emission wavelength was 485 nm. Details of this plate reader program were published previously (Reference: Chakraborty, P. et al. Co-factor-free aggregation of tau into seeding-competent RNA-sequestering amyloid fibrils. Nat. Commun. 12, 4231 (2021)). […] The fibril-containing mixture collected from the microplate served as a seeding mixture for the subsequent aggregation assays.
Fibril samples were negative stained using glow discharged 400 mesh carbon-coated copper grids. After staining using a 1% uranyl acetate solution, images were acquired on a Talos L120C transmission electron microscope (Thermo Fisher, Eindhoven, The Netherlands).

15N-labeled 2N4R tau = biological target: T2, 15N-labeled 2N4R tau (Homo sapiens, UniProt P10636); test: SOFAST-HMQC NMR binding to monomeric tau; settings: 18 μM tau, 50 mM sodium phosphate pH 6.8, 16 h at 37° C., spectra at 5° C.
T2 construct: Full-length 2N4R tau was incubated with Osimertinib mesylate
T2 sequence (P10636 1-441 isoform P10636-8): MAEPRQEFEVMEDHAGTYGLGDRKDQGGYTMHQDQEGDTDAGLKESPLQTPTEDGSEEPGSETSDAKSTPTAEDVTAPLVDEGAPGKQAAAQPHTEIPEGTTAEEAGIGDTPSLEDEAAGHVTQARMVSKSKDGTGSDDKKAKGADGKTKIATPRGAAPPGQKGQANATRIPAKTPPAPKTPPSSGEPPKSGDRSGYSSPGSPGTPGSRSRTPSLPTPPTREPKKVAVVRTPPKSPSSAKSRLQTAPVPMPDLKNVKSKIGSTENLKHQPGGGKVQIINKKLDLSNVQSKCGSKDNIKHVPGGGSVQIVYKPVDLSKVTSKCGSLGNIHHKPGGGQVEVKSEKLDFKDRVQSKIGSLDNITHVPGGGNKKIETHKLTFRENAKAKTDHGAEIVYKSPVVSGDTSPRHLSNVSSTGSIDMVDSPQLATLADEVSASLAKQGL
Description: (A) Overlaid spectra of 2N4R tau with (black) and without (grey) a 100-fold molar excess of Osimertinib mesylate.
To obtain residue-specific information about the interaction between Tau and the compounds, ^1H-^15N correlation spectra of 2N4R Tau were monitored over the course of a titration with increasing amounts of compound. The ^1H-^15N SOFAST-HMQC (Reference: Schanda, P., Kupce, E. & Brutscher, B. SOFAST-HMQC experiments for recording two-dimensional heteronuclear correlation spectra of proteins within a few seconds. J. Biomol. NMR 33, 199-211 (2005)) spectra of [U-^15N]-Tau were acquired at 5° C. on a Bruker 800 MHz spectrometer equipped with a triple-resonance cryoprobe. Tau samples (18-25 μM) were prepared in NMR buffer containing 10% (v/v) D2O, and with compound concentrations that corresponded to Tau:compound mole ratios of 1:10 and 1:100. All NMR samples were incubated overnight (˜16 h) at 37° C. prior to spectral acquisition. Tau amide assignments were taken from a previous study (Reference: Mukrasch, M. et al. Structural polymorphism of 441-residue tau at single residue resolution. PLoS Biol. 7, e34 (2009)). However, because previous assignments were obtained using a Tau sample prepared in the presence of reducing agents, some amide resonances belonging to the repeat region of Tau (close to C291 and C322) were not unambiguously transferred to the SOFAST-HMQC spectra acquired under oxidizing conditions. Therefore, to obtain nearly complete backbone assignments in the repeat region, 3D HNCA, 3D HNCOCA, and 3D CBCACONH spectra were recorded for a [U-^13C,^15N]-4R Tau (K18 construct) sample prepared under the same buffer condition. The weighted, normalized chemical shift perturbations (CSP) were calculated as CSP=√[0.5 [(Δδ H)^2+(Δδ N)^2/25]. NMR signal intensity ratios, I/I0 (where I is the peak intensity of Tau amide backbone resonances in the presence of the compounds, and I0 is the peak intensity in the absence of the compounds), were calculated for each titration point.

2N4R Tau fibrils = biological target: T3, 2N4R Tau fibrils (Homo sapiens, UniProt P10636); test: Saturation transfer difference (STD) NMR with tau fibrils; format: binding; settings: 48-fold excess of compound, 100 mM NaCl, 2.5% (v/v) DMSO, pH 6.8, 37° C.
T3 construct: Full-length 2N4R tau was incubated with Osimertinib mesylate
T3 sequence (P10636 1-441 isoform P10636-8): as above
Method: 2N4R Tau fibrils were prepared using the aggregation procedure described in the section in vitro assay 1 without Thioflavin T. The mole ratio of “free” compound to fibrils was 48:1 (corresponding to a total compound concentration of 250 μM and a total fibril concentration of 5 μM Tau). The NMR samples were prepared in 50 mM sodium phosphate with 100 mM NaCl and 2.5% (v/v) DMSO at pH 6.8. The spectra were recorded at 37° C. using a Bruker 700 MHz spectrometer equipped with a triple resonance cryoprobe. 1D ^1H-NMR STD spectra were acquired in an interleaved manner, alternating between off-resonance irradiation at 60 ppm and on-resonance irradiation at −2 ppm.

[1] = test system: HEK293T biosensor cells expressing the human tau repeat domain (RD) harboring the P301L/V337M mutation (TauRD^LM-GFP); test: HEK biosensor cell tau seeding assay; format: cell-based; settings: for compound concentration up to which total amount of cells remained close to 100% (low toxicity): HEK biosensor cells, relative to vehicle (DMSO)
Method: Compound stock solutions were prepared as 10 mM compound in DMSO.
HEK293T biosensor cells expressing the human tau repeat domain (RD) harboring the P301L/V337M mutation and fused to a C-terminal GFP tag (named TauRD^LM-GFP) were engineered to probe Tau seeding in cellula (Reference: Liu, S., Hossinger, A., Heumüller, S E. et al. Highly efficient intercellular spreading of protein misfolding mediated by viral ligand-receptor interactions. Nat Commun 12, 5739 (2021). https://doi.org/10.1038/s41467-021-25855-2). HEK cells expressing the P301L human full-length Tau, C-terminally tagged with GFP were incubated with pre-sonicated hTau40^P301L fibrils to induce Tau aggregate formation. Cells were harvested and the resulting cell lysate was used to seed Tau aggregation in further experiments with HEK TauRD^LM-GFP cells.
In a typical seeded assay, HEK cells were incubated with cell lysate, compounds (0-40 μM) and lipofectamine for 22-48 hours. Negative control experiments in the absence of compounds (only with vehicle DMSO) and in the presence of cell lysate were performed in parallel.
Dose response curves were constructed by quantifying the number of cells with aggregates for each compound concentration. The curves were fitted with a sigmoid function using Graphpad PRISM version 8. The inhibitory concentration at 50% activity (IC50) was determined for each compound.

[2] = test system: tau-induced degeneration of Drosophila eyes (GMR-Gal4/WT tau); test: Drosophila neurodegeneration model (eye degeneration); format: in vivo; settings: GMR-Gal4/WT tau flies treated in food from larvae stage to adult stage
Method: Stock solutions of individual compounds were prepared by dissolving 10 mg of the compound in 100 μl of 100% DMSO. Osimertinib, Osimertinib mesylate and AZ7550 mesylate were orally fed to the flies by mixing them with food. The final concentration of each compound, which was used for treating the Drosophila, was derived on the basis of recommended concentrations for human use (reference concentration) based on body weight.
We have used three concentrations for each compound. One was equal to the reference concentration, and two were higher than the reference concentration. Final concentrations of different compounds mixed with fly food are: Osimertinib mesylate, […]; Osimertinib, […]; AZ 7550 mesylate, 10 µM and 20 µM. After hatching, first instar larvae were transferred onto the food containing one of the compounds. Food mixed with drug at required concentration was replaced with fresh food every 48 h.
Light microscopy was performed after mounting the fly heads on the glass slide using a double-sided adhesive tape. Full-eye images were captured with the help of an Infinity Analyze camera attached to an Olympus SZX7 microscope with a halogen light source. Total eye surface area and degenerated eye surface area were marked and calculated with Infinity Analyze software (Lumenera corporation). Percentage of degenerated area was calculated and plotted using GraphPad Prism 8.
After the eclosion, treated and control flies (2-3 days old) were fixed in 1% formaldehyde for two hours, followed by serial dehydration steps of 12 hrs each in 25%, 50%, 75% and 100% ethanol were carried out. Flies were stored in 100% ethanol and dried with CPD before mounting on the stab for imaging. Eye Images were captured at 150× and analyzed using Infinity Analyze software.

2N4R tau = biological target: T4, 2N4R tau (Homo sapiens, UniProt P10636); test: In vitro seeded aggregation/fibrillization assay of 2N4R tau (ThT fluorescence); format: biochemical
T4 construct: Full-length 2N4R tau was incubated with Osimertinib mesylate
T4 sequence (P10636 1-441 isoform P10636-8): as above
Method: Aggregation of 2N4R Tau was performed using a previously published co-factor-free aggregation protocol, with a few modifications (Reference: Chakraborty, P. et al. Co-factor-free aggregation of tau into seeding-competent RNA-sequestering amyloid fibrils. Nat. Commun. 12, 4231 (2021)). Aggregation experiments used the Tau protein stock prepared in 25 mM HEPES pH 7.4, 1 mM TCEP. Stocks of compounds were prepared in aggregation buffer (25 mM HEPES, 10 mM KCl, 5 mM MgCl2, pH 7.2) or in DMSO (10 mM compound).
as §1
Seeded aggregation assays were performed as described above but with 1.0% of the well volume occupied by the seeding mixture sonicated for 1 minute. The assays were performed in the presence and absence of compounds, and working concentrations ranged from 0-250 μM compound.
Analyses of the fluorescence curves were performed using Graphpad PRISM version 8. Fluorescence data were fit to a sigmoid function. The number of hours corresponding to half-maximal ThT Fluorescence™ as well as the span of fluorescence intensity (Span) were determined for each sigmoid curve. Statistically significant differences were determined by one-way ANOVA analysis with Dunnett's multiple comparison test or unpaired t-test.

tau(244-372, 13818 Da) = biological target: T5, tau(244-372, 13818 Da) (Homo sapiens, UniProt P10636); test: ESI-MS covalent modification of tau; format: binding
T5 construct: comprising residues 244-372 of 2N4R Tau
T5 sequence (P10636 561-689): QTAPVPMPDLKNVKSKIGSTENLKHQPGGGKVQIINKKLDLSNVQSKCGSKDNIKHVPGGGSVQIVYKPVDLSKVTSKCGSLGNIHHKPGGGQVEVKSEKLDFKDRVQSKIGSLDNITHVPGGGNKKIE
Method: This analysis was performed using the 4R Tau construct (K18 construct, 13818 Da) comprising residues 244-372 of 2N4R Tau. Compounds (330 μM) were incubated with 4R Tau (65 μM) for 16 h at 37° C. in 10 mM ammonium bicarbonate at pH 7.0. The compound/4R Tau mixtures were injected into an LC system (ACQUITY) coupled to a single quadrupole mass detection system (SQ Detector 2, Waters) with diode-array detectors (DAD). The DAD spectrum covers wavelengths of 210-400 nm. Components of the compound-4R Tau mixture were separated using a BioResolve RP mAb column (Waters) with a gradient of 5-95% buffer B (buffer A is 0.1% TFA in water and buffer B is 0.1% TFA in acetonitrile). Covalent modification of 4R Tau corresponded to mass additions of 500 Da (Osimertinib) and 486 Da (AZ7550 or AZ5104).

T1 sequence (P10636 1-441 isoform P10636-8): as the sequence (P10636 1-441 isoform P10636-8) above

C=CC(=O)Nc1cc(Nc2nccc(-c3cn(C)c4ccccc34)n2)c(OC)cc1N(C)CCNC [AZ7550 hydrochloride, N-[4-methoxy-5-[4-(1-methyl-1H-indol-3-yl)-2-pyrimidinyl]amino]-2-[methyl[2-(methylamino)ethyl]amino]phenyl]-2-Propenamide hydrochloride]
dissolution of 2N4R tau aggregates (reduction of ThT fluorescence intensity) (2N4R tau aggregates): partially dissolve | binding to tau (NMR spectroscopy) (15N-labeled 2N4R tau): reveals binding | STD effect with tau fibrils (fibril binding epitopes) (2N4R Tau fibrils): Protons showing STD effects | compound concentration up to which total amount of cells remained close to 100% (low toxicity) [1]: about 5.0 μM

C=CC(=O)Nc1cc(Nc2nccc(-c3cn(C)c4ccccc34)n2)c(OC)cc1N(C)CCNC [AZ7550 mesylate, N-[4-methoxy-5-[[4-(1-methyl-1H-indol-3-yl)-2-pyrimidinyl]amino]-2-[methyl[2-(methylamino)ethyl]amino]phenyl]-2-Propenamide]
tau-induced degeneration of Drosophila eyes (percent degeneration, light microscopy) [2]: rescue tau-induced degeneration of Drosophila eyes

C=CC(=O)Nc1cc(Nc2nccc(-c3cn(C)c4ccccc34)n2)c(OC)cc1N(C)CCNC [Compound 2]
In vitro seeded aggregation/fibrillization of full-length tau (ThT fluorescence curves) (2N4R tau; 2N4R tau, various formulations): inhibited in a dose-dependent manner | covalent modification of cysteines in tau (ESI-MS) (tau(244-372, 13818 Da)): confirms covalent modification of cysteines

C=CC(=O)Nc1cc(Nc2cc(-c3cn(C)c4ccccc34)nc(OC)n2)c(OC)cc1N(C)CCN(C)C [Compound 9]
compound concentration up to which total amount of cells remained close to 100% (low toxicity) [1]: about 4.0 μM

C=CC(=O)Nc1cc(COc2cc(-c3cn(C)c4ccccc34)ccn2)ccc1N1CCCC1 [Compound 31]
efficacy of aggregation delay compared to Compound 1 (2N4R tau; 1:3 Tau:compound mole ratio, 2.5% (v/v) DMSO): notably more efficacious | normalized Tm, extent of aggregation delay (2N4R tau; 1:3 Tau:compound mole ratio, 2.5% (v/v) DMSO, at least 3 replicates): significant delay of aggregation

O=C(O[C@@H]1Cc2c(O)cc(O)cc2O[C@@H]1c1cc(O)c(O)c(O)c1)c1cc(O)c(O)c(O)c1 [EGCG]
inhibitory activity toward the aggregation of tau in HEK biosensor cells (number of cells with aggregates relative to DMSO) ([1]; control compounds compared with Osimertinib, compound 2 and compound 3): much lower inhibitory activity
